# Organism: Rattus norvegicus
# Experiment: DrugMatrix - Regimen: Daily Repeat
# Type: toxicity, organism-based, Sprague-Dawley
# Parameters: regimen Daily Repeat, gender Male, age 6-8 weeks
# Conditions: in vivo, po, route oral GAVAGE, […]; for ABSOLUTE BASOPHIL / ABSOLUTE EOSINOPHIL / ABSOLUTE LYMPHOCYTE / ABSOLUTE MONOCYTE / ABSOLUTE SEGMENTED NEUTROPHIL / BASOPHIL / EOSINOPHIL / ERYTHROCYTE COUNT / HEMATOCRIT / HEMOGLOBIN / LEUKOCYTE COUNT / LYMPHOCYTE / MEAN CORPUSCULAR HEMOGLOBIN / MEAN CORPUSCULAR HEMOGLOBIN CONCENTRATION / MEAN CORPUSCULAR VOLUME / MONOCYTE / NEUTROPHIL / NUCLEATED RED BLOOD CELLS / PLATELET COUNT: tissue Blood; for ALANINE AMINOTRANSFERASE / ALBUMIN / ALKALINE PHOSPHATASE / ASPARTATE AMINOTRANSFERASE / BLOOD UREA NITROGEN / CARBON DIOXIDE / CHLORIDE / CHOLESTEROL / CREATINE PHOSPHOKINASE / CREATININE / GLUCOSE / LACTATE DEHYDROGENASE / LIPASE / PHOSPHORUS / POTASSIUM / SODIUM / TOTAL BILIRUBIN / URIC ACID / TOTAL PROTEIN: tissue Plasma
# [1] = 0.3 mg/kg, 120 h, dose level Low, time 5 day
# [2] = 150 mg/kg, 72 h, dose level High, time 3 day
# [3] = 150 mg/kg, 120 h, dose level High, time 5 day
compound,measurement,setting,value
C[C@]12CC[C@@H]3c4ccc(O)cc4CC[C@H]3[C@@H]1CC[C@@H]2O [ESTRADIOL],ABSOLUTE BASOPHIL,[1],0 CELLS/uL
same,ABSOLUTE EOSINOPHIL,[1],0 CELLS/uL
same,ABSOLUTE LYMPHOCYTE,[1],8421.33 CELLS/uL
same,ABSOLUTE MONOCYTE,[1],178.67 CELLS/uL
same,ABSOLUTE SEGMENTED NEUTROPHIL,[1],333.33 CELLS/uL
same,BASOPHIL,[1],0%
same,EOSINOPHIL,[1],0%
same,ERYTHROCYTE COUNT,[1],5.67 x10E6/uL
same,HEMATOCRIT,[1],36.43%
same,HEMOGLOBIN,[1],14.13 G/DL
same,LEUKOCYTE COUNT,[1],8.93 x10E3/uL
same,LYMPHOCYTE,[1],94.33%
same,MEAN CORPUSCULAR HEMOGLOBIN,[1],24.93 pg
same,MEAN CORPUSCULAR HEMOGLOBIN CONCENTRATION,[1],38.77 G/DL
same,MEAN CORPUSCULAR VOLUME,[1],64.2 fL
same,MONOCYTE,[1],2%
same,NEUTROPHIL,[1],3.67%
same,NUCLEATED RED BLOOD CELLS,[1],0 /100WBC
same,PLATELET COUNT,[1],1136.67 x10E3/uL
same,ALANINE AMINOTRANSFERASE,[1],62 u/L
same,ALBUMIN,[1],4.23 G/DL
same,ALKALINE PHOSPHATASE,[1],381.67 u/L
same,ASPARTATE AMINOTRANSFERASE,[1],80.33 u/L
same,BLOOD UREA NITROGEN,[1],11 mg/dL
same,CARBON DIOXIDE,[1],31.67 mmol/L
same,CHLORIDE,[1],97 MEQ/L
same,CHOLESTEROL,[1],52.67 mg/dL
same,CREATINE PHOSPHOKINASE,[1],324.67 u/L
same,CREATININE,[1],0.15 mg/dL
same,GLUCOSE,[1],162.67 mg/dL
same,LACTATE DEHYDROGENASE,[1],166.67 u/L
same,LIPASE,[1],10.33 u/L
same,PHOSPHORUS,[1],9.63 mg/dL
same,POTASSIUM,[1],5.76 MEQ/L
same,SODIUM,[1],143 MEQ/L
same,TOTAL BILIRUBIN,[1],0.2 mg/dL
same,URIC ACID,[1],0.43 mg/dL
same,ABSOLUTE BASOPHIL,[2],0 CELLS/uL
same,ABSOLUTE EOSINOPHIL,[2],0 CELLS/uL
same,ABSOLUTE LYMPHOCYTE,[2],6738.33 CELLS/uL
same,ABSOLUTE MONOCYTE,[2],100.67 CELLS/uL
same,ABSOLUTE SEGMENTED NEUTROPHIL,[2],527.67 CELLS/uL
same,BASOPHIL,[2],0%
same,EOSINOPHIL,[2],0%
same,ERYTHROCYTE COUNT,[2],5.96 x10E6/uL
same,HEMATOCRIT,[2],36.23%
same,HEMOGLOBIN,[2],13.83 G/DL
same,LEUKOCYTE COUNT,[2],7.37 x10E3/uL
same,LYMPHOCYTE,[2],91.67%
same,MEAN CORPUSCULAR HEMOGLOBIN,[2],23.37 pg
same,MEAN CORPUSCULAR HEMOGLOBIN CONCENTRATION,[2],38.27 G/DL
same,MEAN CORPUSCULAR VOLUME,[2],61 fL
same,MONOCYTE,[2],1.33%
same,NEUTROPHIL,[2],7%
same,NUCLEATED RED BLOOD CELLS,[2],0 /100WBC
same,PLATELET COUNT,[2],934 x10E3/uL
same,ALANINE AMINOTRANSFERASE,[2],64.33 u/L
same,ALBUMIN,[2],3.8 G/DL
same,ALKALINE PHOSPHATASE,[2],760.67 u/L
same,ASPARTATE AMINOTRANSFERASE,[2],90 u/L
same,BLOOD UREA NITROGEN,[2],10 mg/dL
same,CARBON DIOXIDE,[2],33 mmol/L
same,CHLORIDE,[2],100 MEQ/L
same,CHOLESTEROL,[2],22.67 mg/dL
same,CREATINE PHOSPHOKINASE,[2],373.33 u/L
same,CREATININE,[2],0.22 mg/dL
same,GLUCOSE,[2],140.33 mg/dL
same,LACTATE DEHYDROGENASE,[2],223.67 u/L
same,LIPASE,[2],12.33 u/L
same,PHOSPHORUS,[2],8.83 mg/dL
same,SODIUM,[2],145.57 MEQ/L
same,TOTAL BILIRUBIN,[2],0.23 mg/dL
same,TOTAL PROTEIN,[2],5.87 G/DL
same,URIC ACID,[2],0.3 mg/dL
same,ABSOLUTE BASOPHIL,[3],0 CELLS/uL
same,ABSOLUTE EOSINOPHIL,[3],0 CELLS/uL
same,ABSOLUTE LYMPHOCYTE,[3],9738.33 CELLS/uL
same,ABSOLUTE MONOCYTE,[3],202.33 CELLS/uL
same,ABSOLUTE SEGMENTED NEUTROPHIL,[3],759.33 CELLS/uL
same,BASOPHIL,[3],0%
same,EOSINOPHIL,[3],0%
same,ERYTHROCYTE COUNT,[3],6.23 x10E6/uL
same,HEMATOCRIT,[3],39.2%
same,HEMOGLOBIN,[3],14.6 G/DL
same,LEUKOCYTE COUNT,[3],10.7 x10E3/uL
same,LYMPHOCYTE,[3],91%
same,MEAN CORPUSCULAR HEMOGLOBIN,[3],23.43 pg
same,MEAN CORPUSCULAR HEMOGLOBIN CONCENTRATION,[3],37.27 G/DL
same,MEAN CORPUSCULAR VOLUME,[3],62.93 fL
same,MONOCYTE,[3],2%
same,NEUTROPHIL,[3],7%
same,NUCLEATED RED BLOOD CELLS,[3],0 /100WBC
same,PLATELET COUNT,[3],1292.33 x10E3/uL
same,ALANINE AMINOTRANSFERASE,[3],55.33 u/L
same,ALBUMIN,[3],3.87 G/DL
same,ALKALINE PHOSPHATASE,[3],654.67 u/L
same,ASPARTATE AMINOTRANSFERASE,[3],67 u/L
same,BLOOD UREA NITROGEN,[3],7.67 mg/dL
same,CARBON DIOXIDE,[3],29.33 mmol/L
same,CHLORIDE,[3],99.67 MEQ/L
same,CHOLESTEROL,[3],14 mg/dL
same,CREATINE PHOSPHOKINASE,[3],271.33 u/L
same,CREATININE,[3],0.13 mg/dL
same,GLUCOSE,[3],125.67 mg/dL
same,LACTATE DEHYDROGENASE,[3],192.67 u/L
same,LIPASE,[3],7.67 u/L
same,POTASSIUM,[3],5.37 MEQ/L
same,SODIUM,[3],145.23 MEQ/L
same,TOTAL BILIRUBIN,[3],0.2 mg/dL
same,TOTAL PROTEIN,[3],6.67 G/DL
same,URIC ACID,[3],0.3 mg/dL

# Reference: ChEMBL document CHEMBL3885881, “DrugMatrix”
